target: T1, TNF-α (Homo sapiens, UniProt P01375); experiment: TNF-α Induced HEK Blue Cellular Assay (secreted alkaline phosphatase expression, QUANTI-Blue); format: cell-based; settings: HEK Blue TNFα reporter cells; TNF-α 100 μg/ml; 24 hrs at 37° C.; inhibition of secreted alkaline phosphatase; read-out: IC50 value
T1 construct: purchased R&D 210-TA-020/CF
Outline: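 Compound was serially diluted from […] to 0.5 nM final, then incubated with 10,000 HEK Blue TNFα reporter cells per well and […] TNF-α for 24 h at 37° C. SEAP output was read by QUANTI-Blue absorbance at 620 nm. Inhibition was background-corrected against DMSO controls with and without stimulation, and IC50 was fitted with a 4-parameter logistic equation.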

T1 sequence (P01375 77-233 limits assumed): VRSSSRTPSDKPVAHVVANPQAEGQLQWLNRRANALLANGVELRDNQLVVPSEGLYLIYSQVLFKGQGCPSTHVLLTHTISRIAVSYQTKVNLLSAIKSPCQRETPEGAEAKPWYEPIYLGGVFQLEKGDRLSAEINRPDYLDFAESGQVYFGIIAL

Compared with [2H]C([2H])([2H])N1C(=O)c2cccc(OC(F)F)c2[C@H]2C[C@@H]1c1nc3ccc(C#CC4CNC4)cc3n12 [Example 69, (7R,14R)-11-(azetidin-3-ylethynyl)-1-(difluoromethoxy)-6-(methyl-d3)-6,7-dihydro-7,14-methanobenzo[f]benzo[4,5]imidazo[1,2-a][1,4]diazocin-5(14H)-one], [2H]C([2H])([2H])N1C(=O)c2cccc(OC(F)F)c2[C@H]2C[C@@H]1c1nc3ccc(C#C[C@H]4C[C@H](NC)C4)cc3n12 [Example 254, (7R,14R)-1-(difluoromethoxy)-6-(methyl-d3)-11-(((1r,3R)-3-(methylamino)cyclobutyl)ethynyl)-6,7-dihydro-7,14-methanobenzo[f]benzo[4,5]imidazo[1,2-a][1,4]diazocin-5(14H)-one] is lower in IC50: 0.1 to 1 µM for the first, under 0.1 µM for the second. The second is the more potent here.

First: [2H]C([2H])([2H])N1C(=O)c2cccc(OC(F)F)c2[C@H]2C[C@@H]1c1nc3ccc(C#Cc4nncn4C)cc3n12 [Example 25, (7R,14R)-1-(difluoromethoxy)-6-(methyl-d3)-11-((4-methyl-4H-1,2,4-triazol-3-yl)ethynyl)-6,7-dihydro-7,14-methanobenzo[f]benzo[4,5]imidazo[1,2-a][1,4]diazocin-5(14H)-one]
Second: [2H]C([2H])([2H])N1C(=O)c2cccc(OC(F)F)c2[C@H]2C[C@@H]1c1nc3ccc(C#Cc4nncs4)cc3n12 [Example 30, (7R,14R)-11-((1,3,4-thiadiazol-2-yl)ethynyl)-1-(difluoromethoxy)-6-(methyl-d3)-6,7-dihydro-7,14-methanobenzo[f]benzo[4,5]imidazo[1,2-a][1,4]diazocin-5(14H)-one]
The IC50 of the first is higher: 1 to 10 µM for the first, under 0.1 µM for the second.

[2H]C([2H])([2H])N1C(=O)c2cccc(OC(F)F)c2[C@H]2C[C@@H]1c1nc3ccc(C#CC4(C)CN(CC)C4)cc3n12 [Example 206, (7R,14R)-1-(difluoromethoxy)-11-((1-ethyl-3-methylazetidin-3-yl)ethynyl)-6-(methyl-d3)-6,7-dihydro-7,14-methanobenzo[f]benzo[4,5]imidazo[1,2-a][1,4]diazocin-5(14H)-one] and [2H]C([2H])([2H])N1C(=O)c2cccc(OC(F)F)c2[C@H]2C[C@@H]1c1nc3ccc(C#CC4(C)CN(C(=O)C5CC5)C4)cc3n12 [Example 161, (7R,14R)-11-((1-(cyclopropanecarbonyl)-3-methylazetidin-3-yl)ethynyl)-1-(difluoromethoxy)-6-(methyl-d3)-6,7-dihydro-7,14-methanobenzo[f]benzo[4,5]imidazo[1,2-a][1,4]diazocin-5(14H)-one] cannot be ordered by IC50: under 0.1 µM for the first, under 0.1 µM for the second.

[2H]C([2H])([2H])N1C(=O)c2cccc(OC(F)F)c2[C@H]2C[C@@H]1c1nc3ccc(C#Cc4cnc(C)nc4)cc3n12 [Example 21, (7R,14R)-1-(difluoromethoxy)-6-(methyl-d3)-11-((2-methylpyrimidin-5-yl)ethynyl)-6,7-dihydro-7,14-methanobenzo[f]benzo[4,5]imidazo[1,2-a][1,4]diazocin-5(14H)-one] and [2H]C([2H])([2H])N1C(=O)c2cccc(OC(F)F)c2[C@H]2C[C@@H]1c1nc3ccc(C#Cc4ncns4)cc3n12 [Example 45, (7R,14R)-11-((1,2,4-thiadiazol-5-yl)ethynyl)-1-(difluoromethoxy)-6-(methyl-d3)-6,7-dihydro-7,14-methanobenzo[f]benzo[4,5]imidazo[1,2-a][1,4]diazocin-5(14H)-one] cannot be ordered by IC50: under 0.1 µM for the first, under 0.1 µM for the second.

Compared with [2H]C([2H])([2H])N1C(=O)c2cccc(OC(F)F)c2[C@H]2C[C@@H]1c1nc3ccc(C#CC4(O)CNC4)cc3n12 [Example 251, (7R,14R)-1-(difluoromethoxy)-11-((3-hydroxyazetidin-3-yl)ethynyl)-6-(methyl-d3)-6,7-dihydro-7,14-methanobenzo[f]benzo[4,5]imidazo[1,2-a][1,4]diazocin-5(14H)-one], [2H]C([2H])([2H])N1C(=O)c2cccc(OC(F)F)c2[C@H]2C[C@@H]1c1nc3ccc(C#CCO)cc3n12 [Example 144, (7R,14R)-1-(difluoromethoxy)-11-(3-hydroxyprop-1-yn-1-yl)-6-(methyl-d3)-6,7-dihydro-7,14-methanobenzo[f]benzo[4,5]imidazo[1,2-a][1,4]diazocin-5(14H)-one] is lower in IC50: 10 to 30 µM for the first, 0.1 to 1 µM for the second.

Compared with [2H]C([2H])([2H])N1C(=O)c2cccc(OC(F)F)c2[C@H]2C[C@@H]1c1nc3ccc(C#CCCNC(=O)C(C)(C)C)cc3n12 [Example 215, N-(4-((7R,14R)-1-(difluoromethoxy)-6-(methyl-d3)-5-oxo-5,6,7,14-tetrahydro-7,14-methanobenzo[f]benzo[4,5]imidazo[1,2-a][1,4]diazocin-11-yl)but-3-yn-1-yl)pivalamide], [2H]C([2H])([2H])N1C(=O)c2cccc(OC(F)F)c2[C@H]2C[C@@H]1c1nc3ccc(C#CCN(CC)CC)cc3n12 [Example 62, (7R,14R)-11-(3-(diethylamino)prop-1-yn-1-yl)-1-(difluoromethoxy)-6-(methyl-d3)-6,7-dihydro-7,14-methanobenzo[f]benzo[4,5]imidazo[1,2-a][1,4]diazocin-5(14H)-one] is lower in IC50: 10 to 30 µM for the first, under 0.1 µM for the second. The second is the more potent here.

[2H]C([2H])([2H])N1C(=O)c2cccc(OC(F)F)c2[C@H]2C[C@@H]1c1nc3ccc(C#CC4CN(C(=O)C(C)(C)O)C4)cc3n12 [Example 126, (7R,14R)-1-(difluoromethoxy)-11-((1-(2-hydroxy-2-methylpropanoyl)azetidin-3-yl)ethynyl)-6-(methyl-d3)-6,7-dihydro-7,14-methanobenzo[f]benzo[4,5]imidazo[1,2-a][1,4]diazocin-5(14H)-one] and [2H]C([2H])([2H])N1C(=O)c2cccc(OC(F)F)c2[C@H]2C[C@@H]1c1nc3ccc(C#CC4CC(C#N)C4)cc3n12 (stereo partly drawn) [Example 141, 3-(((7R,14R)-1-(difluoromethoxy)-6-(methyl-d3)-5-oxo-5,6,7,14-tetrahydro-7,14-methanobenzo[f]benzo[4,5]imidazo[1,2-a][1,4]diazocin-11-yl)ethynyl)cyclobutane-1-carbonitrile] cannot be ordered by IC50: under 0.1 µM for the first, under 0.1 µM for the second.

Compared with [2H]C([2H])([2H])N1C(=O)c2cccc(OC(F)F)c2[C@H]2C[C@@H]1c1nc3ccc(C#C[C@@H](C)O)cc3n12 [Example 179, (7R,14R)-1-(difluoromethoxy)-11-((R)-3-hydroxybut-1-yn-1-yl)-6-(methyl-d3)-6,7-dihydro-7,14-methanobenzo[f]benzo[4,5]imidazo[1,2-a][1,4]diazocin-5(14H)-one], [2H]C([2H])([2H])N1C(=O)c2cccc(OC(F)F)c2[C@H]2C[C@@H]1c1nc3ccc(C#C[C@@H](C)CO)cc3n12 [Example 128, (7R,14R)-1-(difluoromethoxy)-11-((R)-4-hydroxy-3-methylbut-1-yn-1-yl)-6-(methyl-d3)-6,7-dihydro-7,14-methanobenzo[f]benzo[4,5]imidazo[1,2-a][1,4]diazocin-5(14H)-one] is lower in IC50: 10 to 30 µM for the first, under 0.1 µM for the second. The second is the more potent here.

First: [2H]C([2H])([2H])N1C(=O)c2cccc(OC(F)F)c2[C@H]2C[C@@H]1c1nc3ccc(C#CC(O)C(F)(F)F)cc3n12 (single isomer, unassigned) [Example 199, (7R,14R)-1-(difluoromethoxy)-6-(methyl-d3)-11-((R or S)-4,4,4-trifluoro-3-hydroxybut-1-yn-1-yl)-6,7-dihydro-7,14-methanobenzo[f]benzo[4,5]imidazo[1,2-a][1,4]diazocin-5(14H)-one]
Second: [2H]C([2H])([2H])N1C(=O)c2cccc(OC(F)F)c2[C@H]2C[C@@H]1c1nc3ccc(C#CC(F)F)cc3n12 [Example 247, (7R,14R)-1-(difluoromethoxy)-11-(3,3-difluoroprop-1-yn-1-yl)-6-(methyl-d3)-6,7-dihydro-7,14-methanobenzo[f]benzo[4,5]imidazo[1,2-a][1,4]diazocin-5(14H)-one]
The IC50 of the first is higher: 0.1 to 1 µM for the first, under 0.1 µM for the second. The second is the more potent here.

[2H]C([2H])([2H])N1C(=O)c2cccc(OC(F)F)c2[C@H]2C[C@@H]1c1nc3ccc(C#CC)c(F)c3n12 [Example 170, (7R,14R)-1-(difluoromethoxy)-12-fluoro-6-(methyl-d3)-11-(prop-1-yn-1-yl)-6,7-dihydro-7,14-methanobenzo[f]benzo[4,5]imidazo[1,2-a][1,4]diazocin-5(14H)-one] and [2H]C([2H])([2H])N1C(=O)c2cccc(OC(F)F)c2[C@H]2C[C@@H]1c1nc3ccc(C#Cc4ccnn4C)cc3n12 [Example 13, (7R,14R)-1-(difluoromethoxy)-6-(methyl-d3)-11-((1-methyl-1H-pyrazol-5-yl)ethynyl)-6,7-dihydro-7,14-methanobenzo[f]benzo[4,5]imidazo[1,2-a][1,4]diazocin-5(14H)-one] cannot be ordered by IC50: under 0.1 µM for the first, under 0.1 µM for the second.

Compared with [2H]C([2H])([2H])N1C(=O)c2cccc(OC(F)F)c2[C@H]2C[C@@H]1c1nc3ccc(C#CC4(C)CN(C(=O)C5CC5(F)F)C4)cc3n12 (stereo partly drawn) [Example 210, (7R,14R)-11-((1-(2,2-difluorocyclopropane-1-carbonyl)-3-methylazetidin-3-yl)ethynyl)-1-(difluoromethoxy)-6-(methyl-d3)-6,7-dihydro-7,14-methanobenzo[f]benzo[4,5]imidazo[1,2-a][1,4]diazocin-5(14H)-one], [2H]C([2H])([2H])N1C(=O)c2cccc(OC(F)F)c2[C@H]2C[C@@H]1c1nc3ccc(C#Cc4ccc(NC(C)=O)nc4)cc3n12 [Example 255, N-(5-(((7R,14R)-1-(difluoromethoxy)-6-(methyl-d3)-5-oxo-5,6,7,14-tetrahydro-7,14-methanobenzo[f]benzo[4,5]imidazo[1,2-a][1,4]diazocin-11-yl)ethynyl)pyridin-2-yl)acetamide] is lower in IC50: 0.1 to 1 µM for the first, under 0.1 µM for the second.

same assay, conditions: IC50 value, HEK Blue TNFα reporter cells; TNF-α 100 μg/ml; 24 hrs at 37° C.; inhibition of secreted alkaline phosphatase

For [2H]C([2H])([2H])N1C(=O)c2cccc(OC(F)F)c2[C@H]2C[C@@H]1c1nc3ccc(C#CC(=O)OC(C)C)cc3n12 [Example 38, isopropyl 3-((7R,14R)-1-(difluoromethoxy)-6-(methyl-d3)-5-oxo-5,6,7,14-tetrahydro-7,14-methanobenzo[f]benzo[4,5]imidazo[1,2-a][1,4]diazocin-11-yl)propiolate], the IC50 was under 0.1 µM.

From US20260365682A1, “MODULATORS OF TNF-ALPHA ACTIVITY” (Forward Therapeutics, Inc., priority 2022, published 2026)
